Patent publication US20120034193A1, “TREATMENT OF NEUROTROPHIC FACTOR MEDIATED DISORDERS” (priority 2009, published 2012)
Structures can show the parent of a compound that is named as a salt.

Columns and labels:
[1] = tested on: trkB mRNA; experiment: trkB mRNA expression in rat cortical neurones under basal conditions (rt RT-PCR); format: cell-based; conditions: 0.5 mM
Description: (§1) Rat cortical neurones were cultured by modification of a method previously described (Singer, et al., Neuroscience Letters, 1996, 212, pp. 13-16). Twelve days after the start of culturing, sarsasapogenin (30 nM), smilagenin (30 nM), 4-methylcatechol (0.5 mM), an inducer of NGF and BDNF release (Saporito et al., Experimental Neurology., 1993, 123, pp. 295-302; Nitta et al., Journal of Pharmacology and Experimental Therapeutics, 1999, 291, pp. 1276-1283) or vehicle (dimethyl sulfoxide, DMSO, 0.25%) were added for 1, 3 or 6 h. After incubation the total messenger ribonucleic acid (mRNA) was quantified using real time reverse transcription-polymerase chain reaction (rt RT-PCR).

[2] = tested on: BDNF mRNA; experiment: BDNF mRNA expression in rat cortical neurones under basal conditions (rt RT-PCR); format: cell-based; conditions: 0.5 mM
Description: as §1

[3] = tested on: C57b1/6 RJ mice; experiment: Sciatic nerve crush model; format: in vivo, Mouse; conditions: 10 μg/kg/day i.p.; nerve crush alone 109.10 ± 2.65
Source text: The sciatic nerve crush model is a well characterised reversible model for motor neurone disease and post-traumatic nerve injuries (McMahon and Priestley, Current Opinion in Neurobiology, 1995, 5, pp. 616-624). The nerve damage is produced by mechanical pressure using haemostatic forceps, applied twice, 5 mm proximal to the trifurcation of the right sciatic nerve of these mice. […] The loss of nerve function recovers progressively over a 4-5 week period after the mechanical insult.
4-Methylcatechol (10 μg/kg/day, i.p.) was used as a positive control (Kaechi et al., Journal of Phamacology and Experimental Therapeutics, 1995, 272, pp. 1300-1304).
C57b1/6 RJ mice were anaesthetised with ketamine chlorhydrate (60 mg/kg, i.p.). The sciatic nerve was surgically exposed at mid thigh level and crushed at 5 mm proximal to the trifurcation of the sciatic nerve. The nerve was crushed twice for 30 s with a haemostatic forceps with a 90-degree rotation between each crush. […] The loss of nerve function recovered progressively over a 4-5 week period after mechanical insult. Electromyographic recordings were assessed as described above.

[4] = tested on: pmn mice; conditions: literature; CNTF i.p. CNTF-secreting cells, Xaliproden oral from birth, CGP 3466B oral at onset; cited from earlier work
[5] = tested on: rat primary cortical neurones; experiment: Inhibition of induced neurite outgrowth by K252a or PD98059; format: cell-based
Description: (§2) Cortical neurones were cultured as detailed above. Neurones were exposed to vehicle (DMSO, 0.25%) or K252a (100 nM) for 1 h. After 1 h, vehicle, sarsasapogenin, smilagenin (30 nM) or BDNF (1.85 nM) was added to the medium in the maintained presence of K252a. Following 24 h exposure to sarsasapogenin or smilagenin (30 nM), vehicle (DMSO, 0.25%) or BDNF (1.85 nM), the neurones were washed using phosphate-buffered saline (PBS) and fixed in glutaraldehyde (2.5%) in PBS. Photographs of 40-60 neurones expressing neurites were taken with a camera fixed on a microscope (objective ×20, Nikon). The neurite length was measured by an analysis of the photographs.
as §2, with “PD98059 (10 μM)” for “K252a (100 nM)”, “vehicle,” for “vehicle, sarsasapogenin,”, “PD98059.” for “K252a.”, “to” for “to sarsasapogenin or”, “PBS” for “phosphate-buffered saline (PBS)”

[6] = tested on: Rat spinal motor neurones; experiment: Neuronal survival and neurite outgrowth in spinal motor neurones; format: cell-based; conditions: 3 days
Description: Rat spinal motor neurones were prepared according to a previously described method (Martinou et al, Neuron, 8, 737-744, 1992). Following 3 days of culturing with sarsasapogenin, smilagenin, vehicle (DMSO, 0.25%), Xaliproden, or BDNF, spinal cord motor neurones were washed twice in PBS, fixed in a cold solution of alcohol (95%) and acetic acid (5%) for 5 min and then rinsed 3 times in PBS. Neurones were stained using a monoclonal antibody anti β-tubulin and an anti mouse Immunoglobulin G. These antibodies stained neurone cell bodies (quantifying the neuroprotective effect) and neurites (quantifying the neurotrophic effect). The cell nuclei were stained by a fluorescent marker. After 1 h of incubation, cells were washed 3 times in PBS. […] A series of pictures were taken using a camera controlled by computer software. All the images were taken under the same conditions. Analyses of the number of cells labelled with anti β-tubulin antibodies and of the total number of cells (number of stained nuclei) were performed using LUCIA 6.0 software.

[7] = tested on: rat primary cortical neurones; experiment: Pre-treatment against glutamate-induced damage (LDH) in cortical neurones; format: cell-based; conditions: 24 h before and 24 h after glutamate 100 μM 10 min
Description: Exposure of rat primary cortical neurones to glutamate increases lactate dehydrogenase (LDH) activity measured 24 h after glutamate exposure, indicating significant neuronal damage. Rat cortical neurones were cultured by modification of a method previously described (Singer, et al., Neuroscience Letters, 1996, 212, pp. 13-16). On day 10 of culture, the medium was changed to a serum-free defined medium. On day 12, the cultures were washed and placed for 24 h in fresh medium containing test compound or vehicle (DMSO, 0.25%). On day 13 neurones were exposed to glutamate (100 μM; 10 min) at 37° C. The cultures were then washed with, and placed in, fresh medium supplemented with test compound or vehicle for a further 24 h before LDH was measured. Neuronal damage was assessed by measuring LDH activity in the media at 24 h after glutamate exposure.

[8] = tested on: Rat cortical neurones; experiment: Neuronal survival and neurite outgrowth of cortical neurones cultured in the absence of serum; format: cell-based; conditions: 3 nM, one day, no serum
Description: Rat cortical neurones were cultured following the method described above.
The test compounds were added for 24 h.
Rat cortical neurones were exposed to sarsasapogenin, smilagenin (30 nM) or vehicle (DMSO, 0.25%) in the absence FBS or FCS for one day. Cortical neurones were stained using a monoclonal antibody anti β-tubulin diluted and an anti mouse Immunoglobulin G diluted. These antibodies stained neurone cell bodies (quantifying the neuroprotective effect) and neurites (quantifying the neurotrophic effect). An epifluorecence microscope (magnification ×20) with a camera took 2 pictures per well (10 pictures per condition). Analyses of the number of cells labelled with anti β-tubulin antibodies and of the total number of cells was performed using LUCIA 6.0 software.

[9] = tested on: Rat spinal motor neurones; experiment: Reversal of glutamate-induced damage in spinal motor neurones; format: cell-based; conditions: 3 nM for 48 h after glutamate 4 μM 10 min
Description: The rat spinal motor neurones were prepared as detailed above. On day 10, the medium was removed and the cultures exposed to glutamate (4 μM) for 10 min at 37° C. in 5% CO2/95% air atmosphere in defined medium. After the glutamate exposure, cultures were washed with DMEM at 37° C. then placed in fresh culture medium containing sarsasapogenin, smilagenin, vehicle or BDNF. After 48 h, the extent of motor neurone damage was determined as detailed above. This Example develops the work reported in Example 8 of PCT patent application No. WO-A-03/082893.

[10] = tested on: Rat cortical neurones; experiment: Neuritogenesis in cortical neurones; format: cell-based; conditions: 3 nM, 24 h
Description: Rat cortical neurones were cultured by modification of a previously described method (Singer, et al., Neuroscience Letters, 1996, 212, pp. 13-16). Cells were cultured with sarsasapogenin, smilagenin, vehicle (DMSO 0.25%), GDNF, BDNF or NGF for 24 h. For each group, 15 pictures showing neurones displaying neurites were selected at random in each field, and for each neurone the longest neurite was measured. The neurite number was measured by counting the number of neurones displaying neurites, the number of neurones not displaying neurites and the number of total neurones in each field. Six fields per well were examined.
The results are shown in Table 15 below, expressed as the number of neurones with neurites per field as a percentage of the total number of neurones per field.

In the case of `Cc1ccc(O)c(O)c1` [4-Methylcatechol, reference compound], the “trkB mRNA, % increase above control” value ([1]; 1 h) is reported as “No increase”, the “trkB mRNA, % increase above control” value ([1]; 3 h) is reported as “No increase” and the “trkB mRNA, % increase above control” value ([1]; 6 h) is reported as “No increase”. For the same molecule, the “BDNF mRNA, % increase above control” value ([2]; 1 h) was “No increase”, the “BDNF mRNA, % increase above control” value ([2]; 3 h) was “No increase” and the “BDNF mRNA, % increase above control” value ([2]; 6 h) was 92%. For the same molecule, the “Degenerated fibres (% of control)” value [3] was −7.48 ± 1.62 % of control.

In the case of `Cc1c(C)c2c(c(C)c1O)CC[C@@](C)(C(=O)N1CCN(c3ccc(N=C(N)c4cccs4)cc3)CC1)O2` [BN 80933], the “Increase of survival time / lifespan of pmn mice” value [4] is given as 40%.

For `C#CCN(C)CC1=Cc2ccccc2Oc2ccccc21.O=C(O)/C=C\C(=O)O` [CGP 3466B], the “Increase of survival time / lifespan of pmn mice” value [4] is listed as 57%.

In the case of `COC(=O)[C@@]1(O)C[C@H]2O[C@]1(C)n1c3ccccc3c3c4c(c5c6ccccc6n2c5c31)C(=O)NC4` [K252a, reference compound], the “Neurite length (% of control)” value ([5]; K252a 100 nM alone (control with K252a)) is reported as 95.22 ± 3.10 % of control.

With `COc1cccc(-c2cc(=O)c3ccccc3o2)c1N` [PD98059, reference compound] the “Neurite length (% of control)” value ([5]; PD98059 10 μM alone (control with PD98059)) was 96.08 ± 2.47 % of control.

For `FC(F)(F)c1cccc(C2=CCN(CCc3ccc4ccccc4c3)CC2)c1` [Xaliproden, 1-[2-(naphth-2-yl)ethyl]-4-(3-trifluoromethylphenyl)-1,2,5,6-tetra-hydropyri-dine hydrochloride, reference compound], the “Increase of survival time / lifespan of pmn mice” value [4] is listed as ~50%, the “Neurite outgrowth (% of control)” value ([6]; 30 nM) is listed as 137.57 ± 11.69 % of control and the “Neuronal survival (% of control)” value ([6]; 30 nM) is listed as 110.95 ± 2.14 % of control. The “Neurite outgrowth (% of control)” value ([6]; 100 nM) was 137.55 ± 6.76 % of control, the “Neuronal survival (% of control)” value ([6]; 100 nM) was 111.18 ± 2.85 % of control and the “Neurite outgrowth (% of control)” value ([6]; 300 nM) was 131.22 ± 7.93 % of control. The “Neuronal survival (% of control)” value ([6]; 300 nM) was 109.47 ± 3.34 % of control.

In the case of `C[C@@H]1CC[C@@]2(OC1)O[C@H]1C[C@H]3[C@@H]4CC=C5C[C@@H](O)CC[C@]5(C)[C@H]4CC[C@]3(C)[C@H]1[C@@H]2C` [diosgenin, reference compound], the “Neuronal survival (% of control)” value ([7]; 3 nM) is reported as 69.43 ± 1.76 % of control, the “Neuronal survival (% of control)” value ([7]; 10 nM) is reported as 66.51 ± 5.13 % of control and the “Neuronal survival (% of control)” value ([7]; 30 nM) is reported as 68.98 ± 5.39 % of control. For the same molecule, the “Neuronal survival (% of control)” value ([7]; 100 nM) was 70.95 ± 5.03 % of control and the “Neuronal survival (% of control)” value ([7]; 300 nM) was 75.02 ± 2.68 % of control.

B1: CNTF: ciliary neurotrophic factor; i.p. administration of CNTF-secreting cells (protein, UniProt P26441 1-200, looked up)
Ciliary neurotrophic factor: MAFTEHSPLTPHRRDLCSRSIWLARKIRSDLTALTESYVKHQGLNKNINLDSADGMPVASTDQWSELTEAERLQENLQAYRTFHVLLARLLEDQQVHFTPTEGDFHQAIHTLLLQVAAFAYQIEELMILLEYKIPRNEADGMPINVGDGGLFEKKLWGLKVLQELSQWTVRSIHDLRFISSHQTGIPARGSHYIANNKKM
modifications: secreted by cells
In the case of B1, the “Increase of survival time / lifespan of pmn mice” value [4] is listed as 40%.

B2: BDNF: brain-derived neurotrophic factor (protein, UniProt P23560 19-247, looked up)
Neurotrophic factor BDNF …: APMKEANIRGQGGLAYPGVRTHGTLESVNGPKAGSRGLTSLADTFEHVIEELLDEDQKVRPNEENNKDADLYTSRVMLSSQVPLEPPLLFLLEEYKNYLDAANMSMRVRRHSDPARRGELSVCDSISEWVTAADKKTAVDMSGGTVTVLEKVPVSKGQLKQYFYETKCNPMGYTKEGCRGIDKRHWNSQCRTTQSYVRALTMDSKKRIGWRFIRIDTSCVCTLTIKRGR
For B2, the “Neurite outgrowth (% of control)” value [8] was 146.84 ± 9.27 % of control, the “Neuronal survival (% of control)” value [8] was 162.75 ± 5.61 % of control and the “Neurite length (% of control)” value ([5]; 1.85 nM, 24 h, no inhibitor) was 125.30 ± 5.80^++++ % of control. For the same molecule, the “Neurite length (% of control)” value ([5]; 1.85 nM, 24 h, with K252a (100 nM)) was 87.31 ± 2.20 % of control, the “Neurite length (% of control)” value ([5]; 1.85 nM, 24 h, with PD98059 (10 μM)) was 99.07 ± 5.15 % of control and the “Neurite outgrowth (% of control)” value ([6]; 1.85 nM) was 176.91 ± 7.25 % of control. The “Neuronal survival (% of control)” value ([6]; 1.85 nM) was 126.15 ± 1.60 % of control, the “Neuronal survival (% of control)” value [9] was 106.60 ± 6.14 % of control and the “Neurite length (% of control)” value [10] was 162.34 ± 5.91 % of control. The “Neurones displaying neurites (%)” value ([10]; control 39.35 ± 2.06) was 48.06 ± 2.17 %.
